Measured values as given in US20230321012A1 (priority 2021, published 2023).
Several values for one entry are separate records, joined by “and”; a condition that tells them apart may be missing. Equal values may be shown once.

What was measured:
spermidine = test: MALDI-FTICR imaging quantitation of PD marker spermidine in whole-body sections of Th-MYCN mice; assay type: in vivo, mouse; details: for Quantitation of spermidine in the whole-body section: Th-MYCN mice, one value per animal; for spermidine level in tumor, comparison of groups: mouse, in vivo; for Spermidine concentration in tumor, Values / Spermidine concentration in tumor, Average: raw determination, 96 h; for Spermidine concentration in tumor, Values: individual Th-MYCN mice; for Spermidine concentration in tumor, Average: treatment group average; for spermidine in eye: vehicle 9.14 μM
Procedure: (§1) The lower limit of detection based on the calibration curve using labeled spermidine was 0.80 μg/g, while for spermine it was 1.10 μg/g.

spermine = test: MALDI-FTICR imaging quantitation of PD marker spermine in whole-body sections of Th-MYCN mice; assay type: in vivo, mouse; details: for Quantitation of spermine in the whole-body section: Th-MYCN mice, one value per animal; for spermine in lung: group average; for spermine level in tumor, comparison of groups: mouse, in vivo; for Spermine concentration in tumor, Value / Spermine concentration in tumor, Average: raw determination, 96 h; for Spermine concentration in tumor, Value: individual Th-MYCN mice; for Spermine concentration in tumor, Average: treatment group average; for spermine in eye: vehicle 17.6 μM
Procedure: as §1

Structure (SMILES): CCCCCCCCCCCCCCCC(=O)NCCCC[C@@H](N)C(=O)NCCCNCCCCNCCCN [AMXT 1501, D-lys(palmitoyl)-spermine]
- Quantitation of spermidine in the whole-body section (spermidine; Eye): 3.21 µM
- Quantitation of spermidine in the whole-body section (spermidine; Intestine contents): 6.36 µM and 9.59 µM
- Quantitation of spermidine in the whole-body section (spermidine; Stomach contents): 2.05 µM and 0.00 µM
- Quantitation of spermidine in the whole-body section (spermidine; Tumor): 1.32 µM
- Quantitation of spermidine in the whole-body section (spermidine; White fat): 5.26 µM
- spermidine level in tumor, comparison of groups (spermidine): lowest levels
- Spermidine concentration in tumor, Values (spermidine): BLOD and 1.32 μM
- Spermidine concentration in tumor, Average (spermidine): 1.32 µM
- spermidine in eye (spermidine): 3 µM
- Quantitation of spermine in the whole-body section (spermine; Eye): 4.19 µM and 5.03 µM
- spermine in lung (spermine): low
- spermine level in tumor, comparison of groups (spermine): lowest levels
- Spermine concentration in tumor, Value (spermine): BLOD
- Spermine concentration in tumor, Average (spermine): BLOD
- spermine in eye (spermine): around 5 μM

Structure (SMILES): NCCCC(N)(C(=O)O)C(F)F (stereo not shown) [DFMO, difluoromethylornithine]
- Quantitation of spermidine in the whole-body section (spermidine; Brain): 1.86 µM
- Quantitation of spermidine in the whole-body section (spermidine; Brown fat): 3.80 µM
- Quantitation of spermidine in the whole-body section (spermidine; Cardiac blood): 0.00 µM
- Quantitation of spermidine in the whole-body section (spermidine; Eye): 6.11 µM and 5.24 µM
- Quantitation of spermidine in the whole-body section (spermidine; Intestine contents): 43.17 µM and 5.61 µM
- Quantitation of spermidine in the whole-body section (spermidine; Intestine wall): 4.56 µM
- Quantitation of spermidine in the whole-body section (spermidine; Kidney): 1.35 µM
- Quantitation of spermidine in the whole-body section (spermidine; Liver): 6.67 µM
- Quantitation of spermidine in the whole-body section (spermidine; Lung): 4.53 µM and 2.64 µM
- Quantitation of spermidine in the whole-body section (spermidine; Stomach wall): 1.13 µM
- Quantitation of spermidine in the whole-body section (spermidine; Testis): 1.97 µM
- Quantitation of spermidine in the whole-body section (spermidine; Thymus): 6.00 µM
- Quantitation of spermidine in the whole-body section (spermidine; Tumor): 5.39 µM
- spermidine level in tumor, comparison of groups (spermidine): highest levels
- Spermidine concentration in tumor, Values (spermidine): BLOD and 5.39 μM
- Spermidine concentration in tumor, Average (spermidine): 5.39 µM
- spermidine in eye (spermidine): 6 µM
- Quantitation of spermine in the whole-body section (spermine; Eye): 16.03 µM and 8.07 µM
- Quantitation of spermine in the whole-body section (spermine; Intestine contents): 2.46 µM
- Quantitation of spermine in the whole-body section (spermine; Intestine wall): 3.44 µM
- Quantitation of spermine in the whole-body section (spermine; Kidney): 4.69 µM
- Quantitation of spermine in the whole-body section (spermine; Liver): 2.14 µM
- Quantitation of spermine in the whole-body section (spermine; Lung): 4.78 µM and 7.91 µM
- Quantitation of spermine in the whole-body section (spermine; Myocardium): BLOQ
- Quantitation of spermine in the whole-body section (spermine; Stomach contents): 0.00 µM
- Quantitation of spermine in the whole-body section (spermine; Stomach wall): BLOQ
- Quantitation of spermine in the whole-body section (spermine; Testis): 7.40 µM
- Quantitation of spermine in the whole-body section (spermine; Thymas): BLOQ
- Quantitation of spermine in the whole-body section (spermine; Tumor): 6.03 µM
- spermine in lung (spermine): 6.35 µM
- spermine level in tumor, comparison of groups (spermine): highest levels
- Spermine concentration in tumor, Value (spermine): BLOD and 6.03 μM
- Spermine concentration in tumor, Average (spermine): 6.03 µM
- spermine in eye (spermine): 12 µM
